Earlier results as cited in patent publication US7208615B2, “Triple mineral salts of (-)-hydroxycitric acid and processes for preparing the same” (Laila Impex, priority 2004, dated 2007).

Assays:
[1] = background art; forms lactone, liquid form unstable during storage
[2] = background art (US 5,783,603)

stability of free acid form [1] | hygroscopicity [2] | Molecule
unstable | – | O=C(O)CC(O)(C(=O)O)C(O)C(=O)O (single isomer, unassigned; (-)) [(−)-hydroxycitric acid]
– | hygroscopic | potassium salt of HCA
